Like-named read-outs stand apart in the source and are kept apart here.
What was measured:
leishmaniasis = conditions: cited from earlier work
[1] = test system: healthy C8-S astrocyte cells; assay: Cell viability of healthy astrocytes treated with SPT (MTS method); type: cell-based, murine
Method: (§1) Astrocyte C8-S murine cell line (ATCC) is grown as monolayer in RPMI 1640 nutrient medium (2 mM L-glutamine, 100 U/ml penicillin, 100 μg/ml streptomycin) with 10% FBS, heat inactivated in a humidified atmosphere environment with 5% C02 at 37° C. Cells are passaged at 3-day intervals.
3. Treating Astrocytes with SPT and Determining Cell Viability
Cells were seeded in 96-well culture dishes (Coming Glasswork, Coming, NY) in Dulbecco's modified Eagle's medium (DMEM) containing 10% fetal bovine serum (lnvitrogen) and 1% PSA (Biological Industries, Beit Haemek, Israel) at 8.000 cells/well and then treated with SPT, and cell viability levels were measured on days 1, 2 and 3. Cell viability is measured by using 3-(4,5-di-methyl-thiazol-2-yl)-5-(3-carboxy-methoxy-phenyl)-2-(4-sulfo-phenyl)-2H-tetrazolium (MTS)-method (CellTiter96 AqueousOne Solution; Promega, Southampton, UK). 10 μl MTS solution is added onto the cells in 100 μl growth medium and they are incubated in the dark for 2 hours. After the incubation period, viability analysis is obtained by performing absorbance measurement with an ELISA plate reader (Biotek, Winooski, VT) at 490 nm wavelength.

[2] = test system: C8-S astrocyte cells infected with L. infantum parasites; assay: Infection rate of astrocytes infected with parasites after SPT treatment (flow cytometer); type: cell-based, Leishmania infantum
Method: Leishmania infimtum (MHOM/MA/67/TTMA-P263) promastigotes are incubated in RPMI medium (heat inactivated 1 0/4) fetal bovine serum, 2 mM L-glutamine, 20 mM HEPES, 100 U/ml penicillin, 100 μg/ml streptomycin) at 27° C. Parasites reaching the logarithmic phase (10^6/ml) are made infective.
as §1
C8-S astrocytes and L. infantum promastigotes were stained with PKH26 (Red Fluorescent Cell Linker Kit, Sigma-Aldrich) and PKH67 (Green Fluorescent Cell Linker Kit, Sigma-Aldrich), respectively, according to the procedure described previously in the article by Islek et al. (2021). A total cell concentration of 10^7 cells/ml was used. Before infection, the staining rate of parasites and cells was determined by flow cytometry.
5. Treating the Infected Astrocytes with SPT
The effect of SPT on the proliferation of astrocyte cells infected with parasites is analyzed. In summary, astrocytes are infected with parasites at 37° cat a ratio of 10:1 (parasite: astrocyte). After 3 and a half hours, infected astrocytes are washed with medium to remove the remaining parasites. Infected astrocytes are left to incubate with SPT at different concentration ranges for 3 days at 37° C., fixed at the end of 3 days and the infection rate is determined by flow cytometer. The percentage of infection is determined according to the following formula: […]

[3] = test system: GSH level in astrocytes infected with Leishmania; assay: Oxidative stress by measurement of glutathione (GSH) level in infected astrocytes (DTNB); type: cell-based, murine; conditions: 50, 100, 150 and 200 μM SPT; 24 hours
Method: 6. Determining the Oxidative Stress by Measurement of Glutathione (GSH) Level in Astrocytes Infected with Leishmania
To determine the GSH level of infected astrocytes, cell lysate (50 ul) is suspended in DTNB (Ellman's reagent—5,5′-Dithiobis(2-nitrobenzoic acid)) (10 uL). Then, EDTA buffer solution (pH 8.2) is added to this mixture in a 96-well plate. After incubation in the dark at 37° C. for 30 minutes, absorbance is measured colorimetrically at a wavelength of 412 nm using a UV spectrophotometer (Thermo Scientific, Finland). The results are expressed as μmol/g protein.

[4] = SPT 50-400 μM, 24, 48 and 72 hours

SMILES: C[C@@H]1[C@H](O)[C@@H](C)/C=C/C=C/C=C/C=C/C=C/C=C/C=C/[C@H](O[C@@H]2O[C@H](C)[C@@H](O)[C@H](N)[C@@H]2O)C[C@@H]2O[C@](O)(C[C@@H](O)C[C@@H](O)[C@H](O)CC[C@@H](O)C[C@@H](O)CC(=O)O[C@H]1C)C[C@H](O)[C@H]2C(=O)O [Amphotericin B]
- cure (leishmaniasis; 6-month therapy): 97%
- cure rate (leishmaniasis; cases where antimonial resistance is observed): ~100%

SMILES: CCCCCCCCCCCCCCCCOP(=O)([O-])OCC[N+](C)(C)C [Miltefosine]
- cure (leishmaniasis; miltefosine data compared with 6-month Amphotericin B therapy): 94%
- cure (leishmaniasis; oral, 3-4-week treatment): 95-100%

SMILES: O.O.O.O.[Na+].[O-]B1OO1 [SPT, sodium perborate tetrahydrate]
- astrocyte cell viability compared to the negative control group ([1]; 100 μM SPT, after 72 hours): 100%
- cell viability of healthy C8-S astrocytes ([1]; 200 μM SPT, 24, 48 and 72 hours): above 100%
- toxic effect on healthy cells [1, 4]: showed no toxic effect on healthy cells
- infection rate of infected astrocytes ([2]; 75 μM SPT, 24 hours, negative control approximately 23%): 20±3.33%
- infection rate of infected astrocytes ([2]; 75 μM SPT, 72 hours, negative control 13%): approximately 4%
- infection rate of infected astrocytes ([2]; 100 μM SPT, 24 hours, negative control approximately 23%): 17±2.86%
- infection rate of infected astrocytes ([2]; 150 μM SPT, 24 hours, negative control approximately 23%): 11.89±3.56%
- infection rate of infected astrocytes ([2]; 200 μM SPT, 24 hours, negative control approximately 23%): 7.97±1.51%
- infection rate of infected astrocytes ([2]; 400 μM SPT, 24 hours, negative control approximately 23%): 12.63±1.78%
- infection rate of infected astrocytes ([2]; 100, 150, 200, and 400 μM SPT, 72 hours, negative control 13%): ~7%
- cell viability on astrocytes infected with Leishmania infantum promastigotes [2, 4]: statistically decreased cell viability
- effect on cells infected with L. infantum parasites ([2]; SPT 75-200 μM): significant reduction
- GSH levels in infected astrocytes compared to the negative control [3]: significantly inducing GSH levels

— US20260232726A1, “USE OF BORON FOR THE TREATMENT OF LEISHMANIASIS DISEASE OF NEURONAL ORIGIN” (YEDITEPE UNIVERSITESI, priority 2023, published 2026)
